According to patent US12366579B2, “Sulfur-heterocycle exchange chemistry and uses thereof” (University of Virginia Patent Foundation, priority 2019, dated 2025):

Experiments:
[1] = system: human cell proteomes (HEK293T, A549, DM93, H82, and Jurkat cells); assay: LC-MS chemical proteomics of probe-modified tyrosine sites across 5 cell proteomes; format: binding; settings: HHS-465 and -475 together; 100 μM, 1 hr, 25° C.
Method: Proteomes were diluted to 2.3 mg/mL in PBS and sample aliquots (432 μL) were treated with sulfonyl-triazole or -fluoride probes at the indicated concentrations (5 μL, 100× stock in DMSO), mixed gently and incubated for 1 h at room temperature. Probe-modified proteomes were subjected to CuAAC conjugation to desthiobiotin-PEG3-azide (10 μL of 10 mM stock in DMSO; final concentration of 200 μM) using TCEP (10 μL of fresh 50 mM stock in water; 1 mM final concentration), TBTA ligand (33 μL of a 1.7 mM 4:1 t-butanol/DMSO stock, 100 μM final concentration), and CuSO4 (10 μL of 50 mM stock, 1 mM final concentration). Samples were mixed by vortexing and then incubated for 1 h at room temperature. Excess reagents were removed by chloroform-methanol extraction as previously described^51. Protein pellets were re-suspended in 500 μL of 6M urea/25 mM ammonium bicarbonate followed by DTT reduction and IAA alkylation as previously described^5. Excess reagents were removed by chloroform/methanol extraction as described above, and the protein pellet was re-suspended in 500 μL of 25 mM ammonium bicarbonate and then digested to peptides using trypsin/Lys-C (7.5 μg in 15 μL of ammonium bicarbonate, sequencing grade from Promega, Madison, Wisconsin, United States of America) was added to the mixture and incubated for 3 hrs at 37° C. […]

[2] = system: HEK293T soluble proteomes; assay: LC-MS chemical proteomics of probe-modified sites in cell proteomes; format: binding, human; settings: for tyrosine specificity, Y/K ratio of modified sites: LC-MS chemical proteomics, FIG. 4A
Method: Proteomes were diluted to 2.3 mg/mL in PBS and sample aliquots (432 μL) were treated with sulfonyl-triazole or -fluoride probes at the indicated concentrations (5 μL, 100× stock in DMSO), mixed gently and incubated for 1 h at room temperature. Probe-modified proteomes were subjected to CuAAC conjugation to desthiobiotin-PEG3-azide (10 μL of 10 mM stock in DMSO; final concentration of 200 μM) using TCEP (10 μL of fresh 50 mM stock in water; 1 mM final concentration), TBTA ligand (33 μL of a 1.7 mM 4:1 t-butanol/DMSO stock, 100 μM final concentration), and CuSO4 (10 μL of 50 mM stock, 1 mM final concentration). Samples were mixed by vortexing and then incubated for 1 h at room temperature. Excess reagents were removed by chloroform-methanol extraction as previously described^51. Protein pellets were re-suspended in 500 μL of 6M urea/25 mM ammonium bicarbonate followed by DTT reduction and IAA alkylation as previously described^5. Excess reagents were removed by chloroform/methanol extraction as described above, and the protein pellet was re-suspended in 500 μL of 25 mM ammonium bicarbonate and then digested to peptides using trypsin/Lys-C (7.5 μg in 15 μL of ammonium bicarbonate, sequencing grade from Promega, Madison, Wisconsin, United States of America) was added to the mixture and incubated for 3 hrs at 37° C. Probe-modified peptides were enriched by avidin affinity chromatography, eluted, and prepared for LC-MS analysis as previously described^51.
A top 10 data-dependent acquisition MS method was used.
Sulfonyl-probe modifications of tyrosine, lysine, and other amino acids were included as a variable (common) modification of +635.27374 Da. […] A Byonic score of 300 was applied for a more inclusive initial evaluation of the search results and thereby consider more possible probe-modified sites. MS1 and MS2 spectra corresponding to the highest-scoring tyrosine- and lysine (internal or non-C terminal)-modified sequences (˜50-100 peptides) were manually verified. […] Distinct peptides containing probe-modified amino acid residues (termed sites) were determined by identifying all unique razor protein and site combinations across all of the proteomes tested.
To compare amino acid residues modified by sulfonyl probes, protein and peptide identifications were accomplished as described above with variable (common) modification of +635.27374 Da on the following amino acid residues: cysteine, aspartic acid, glutamic acid, histidine, lysine, methionine, asparagine, glutamine, arginine, serine, threonine, tryptophan, and tyrosine. For these amino acid comparisons, carbamidomethylation (+57.021464 Da) of cysteines was searched as a variable/common modification to allow for the potential of probe modification on cysteines. Comparisons of probe-modified sites across all probes and cell lines tested were performed using the R package ggplot2 (online at tidyverse.org). Venn diagrams for comparisons were generated using the VennDiagram R package^52.
Proteomes were digested with trypsin protease and desthiobiotin-modified peptides enriched by avidin affinity chromatography, released, and analyzed by high-resolution liquid chromatography-mass spectrometry (LC-MS). Probe-modified peptide-spectrum matches (PSMs) that met a quality control confidence criteria of ≥300 Byonic score^31 and ≤5 ppm mass accuracy were selected for further manual evaluation.

HEK293T, Jurkat cells = assay: Live cell chemical proteomic profiling with SuTEx probes; format: cell-based, human; settings: 100 μM, 2 hr, 37° C.; membrane and soluble fractions; both probes
Method: Cells grown to ˜90% confluency in 10 cm plates were treated with DMSO vehicle or sulfonyl-triazole probe (10 μL of 1000×DMSO stock) in serum-free media for the indicated concentrations and times at 37° C. with 5% CO2. After treatment, cells were washed with cold PBS twice before harvesting and preparation for gel-based chemical proteomic evaluation as described above. For LC-MS studies, protein concentrations were normalized to 2.3 mg/mL and 432 μL (for 1 mg final protein amount) were used for sample preparation as detailed below.
Proteomes were diluted to 2.3 mg/mL in PBS and sample aliquots (432 μL) were treated with sulfonyl-triazole or -fluoride probes at the indicated concentrations (5 μL, 100× stock in DMSO), mixed gently and incubated for 1 h at room temperature. Probe-modified proteomes were subjected to CuAAC conjugation to desthiobiotin-PEG3-azide (10 μL of 10 mM stock in DMSO; final concentration of 200 μM) using TCEP (10 μL of fresh 50 mM stock in water; 1 mM final concentration), TBTA ligand (33 μL of a 1.7 mM 4:1 t-butanol/DMSO stock, 100 μM final concentration), and CuSO4 (10 μL of 50 mM stock, 1 mM final concentration). Samples were mixed by vortexing and then incubated for 1 h at room temperature. Excess reagents were removed by chloroform-methanol extraction as previously described^51. […]

[3] = HPLC assay, p-cresol reactivity against a sulfonyl probe mixture; format: physicochemical; settings: TMG 2.2 equivalents, 0° C.
Method: The following reagents were prepared and kept at 0° C. prior to use: 0.1 M solution of caffeine in acetonitrile (ACN), 1.0 M solution of n-butylamine, p-cresol, tetramethylguanidine (TMG), acetic acid in ACN, and 10 mM solution of the probes in a mixture of DMF-ACN (v/v=10:90) are made.
(i) p-Cresol reactivity against a probe mixture: A solution of p-cresol (16.5 μmol, 3.3 eq) was premixed with 1.1, 2.2, or 3.3 eq of TMG. To initiate the reaction, the p-cresol/TMG solution was added to a sulfonyl probe mixture of HHS-475/HHS-482/HHS-SF-1 (500 μL, 5 μmol, 1.0 eq each) and the reaction was kept at 0° C. The reaction progress was monitored by taking out a 50.0 μL aliquot of the reaction mixture at various time points followed by addition of a 10 μL quenching solution of acetic acid (0.5 M final, 5.0 μmol) and the internal caffeine standard (0.05 M final, 0.5 μmol). Sample (1.0 μL) was injected and analyzed by reverse-phase HPLC on a Shimadzu 1100 Series spectrometer (Shimadzu, Kyoto, Japan) with UV detection at 254 nm. Reaction progress was evaluated by monitoring consumption of sulfonyl probes because all probes generate a shared p-cresol and n-butylamine product. Chromatographic separation was performed using a Phenomenex Kinetex C18 column (2.6 μm, 50 mm×4.6 mm, Phemonenex, Torrance, California, United States of America). […]

Row | Structure (SMILES) | tyrosine sites identified in aggregate across 5 cell proteomes [1] | tyrosine specificity, Y/K ratio of modified sites [2] | distinct tyrosine sites measured in live cell studies, in total per cell line (HEK293T, Jurkat cells) | fold reduction in total number of modified sites compared with HHS-465 and HHS-475 [2] | time to consumption of probe by p-cresol [3]
1 | C#CCNC(=O)c1ccc(S(=O)(=O)n2nccn2)cc1 [HHS-465, 4-((2H-1,2,3-Triazol-2-yl)sulfonyl)-N-(prop-2-yn-1-yl)benzamide] | ~8,000 sites | 2.5 | ~3,500 sites | – | –
2 | C#CCNC(=O)c1ccc(S(=O)(=O)F)cc1 [HHS-SF-1, 4-(Prop-2-yn-1-ylcarbamoyl)benzenesulfonyl fluoride, reference compound] | – | 2.3 | – | ~4 fold | > 90 min
